From patent publication US20110118120A1, “SYNERGISTIC HERBICIDAL COMPOSITION CONTAINING AMINOPYRALID AND SULFONYLUREAS” (Dow AgroSciences LLC, priority 2009, published 2011)

System: milk thistle (Sonchus oleraceus; SONOL)
Experiment: Postemergence herbicidal activity of mixtures under field conditions (percent visual weed control)
Format: in vivo
Conditions: postemergence foliar, spring wheat
Description: These trials were conducted under field conditions in Northern New South Wales, Australia. Trials sites were located in commercially grown fields of spring wheat (Triticum aestivum). The wheat crop was grown using normal cultural practices for fertilization, seeding, and maintenance to ensure good growth of the crop and the weeds. The trial was conducted using normal research methodology. Trial plots were marked out measuring 3 meters (m) by 10 m. All treatments were applied using a randomized complete block trial design with 4 replications per treatment. The trial sites had naturally occurring populations of weeds present. The weed spectrum included, but was not limited to, milk thistle (Sonchus oleraceus; SONOL); wire-weed (Polygonum aviculare; POLAV); turnip weed (Rapistrum rugosum; RASRU); Medick, Medicago spp. (MEDSS); Patersons curse (Echium plantagineum; EPHIL). The weeds were treated with postemergence foliar applications when they were between cotyledons and 8 true leaves.
Treatments consisted of tank mixes of soluble granules of aminopyralid potassium salt and commercially available formulations of metsulfuron-methyl (Ally™ herbicide, water dispersible granules) and MCPA iso-octyl (emulsifiable concentrate). The ‘carrier’ application volume was using 100 liters per hectare (L/ha) of water. […]

Question: With `Nc1cc(Cl)nc(C(=O)O)c1Cl` [Aminopyralid, aminopyralid] as the compound, how does the “% Control SONOL Ob (percent control observed)” value (Aminopyralid 3.75 g ae/ha alone) read?
Answer: 18%

Question: `COC(=O)c1ccccc1S(=O)(=O)NC(=O)Nc1nc(C)nc(OC)n1` [Metsulfuron, metsulfuron-methyl] was tested. Which “% Control SONOL Ob (percent control observed)” value (Metsulfuron 3 g ai/ha alone) did it give?
Answer: 29%
